Data set [1] deals with cavernosalen glatten Muskulatur. The experiment in a line: Organ bath contraction study with corpus cavernosum strips (phenylephrine-induced contraction). On the set-up: species or system Kaninchen. The conditions noted are these: for Relaxation der kavernösen, glatten Muskulatur: Kaninchen, phenylephrine-precontracted tissue. On the procedure:
Männliche New Zealand White-Kaninchen (Gewicht: 2,5-3,0 kg) wurden mit CO2-Gas eingeschläfert. Das cavernöse Gewebe wurde beim Sezieren in eine HEPES-gepufferte Lösung (20°C, pH 7,4) eingebracht. Die oben liegende Skelettmuskulatur wurde vorsichtig entfernt, um nicht die darunterliegende Tunica albuginea zu beschädigen. Im proximalen Ende der Tunica wurde ein Schnitt ausgeführt, während sie distal erweitert wurde. Dann wurde das Corpus Cavernosum bilateral aus der Tunica herausgelöst.
Für menschliches Gewebe wurde das Verfahren zum Ernten von Gewebe vom Institutional Review Board for Human Studies am Boston University Medical Center genehmigt. Cavernöses Gewebe wurde von Patienten erhalten, die sich der Implantation einer Penisprothese zur Behandlung einer erektilen Dysfunktion unterzogen. Im Operationssaal wurden Biopsien der Corpora cavernosa sofort in eisgekühlte (4°C) physiologische Salzlösung gelegt und zum Labor transportiert. Gewebestreifen mit einer Größe von etwa 3 mm x 3mm x 10 mm wurden zugeschnitten und für Organbadstudien gemäß einem ähnlichen Verfahren wie dem nachfolgend beschriebenen präpariert.
Längsschnitte des Corpus cavernosum wurden in Organbäder gelegt, die folgendes (in mM) enthielten: 118 NaCI, 4,7 KCI, 1,2 KH2PO4, MgSO4, 24,9 NaCO3, 5,5 Glucose, 2,0 Na-Pyruvat und 2,0 CaCl2. Die Streifen cavernöser, glatter Muskulatur wurden mit 2 Gramm gestreckt und mit einem Gemisch von 95% O2 und 5% CO2 während zwei Stunden äquilibriert, bevor mit dem Versuchsverfahren begonnen wurde. Dann wurden die Gewebe an Kraftwandler (Grass FT03) angeschlossen. Die Spannungsmessungen wurden mit einem MP100-System und der AcqKnowledge-Software (Biopac) digital aufgezeichnet.
Die Gewebe wurden mit Indomethacin (10 µM) vorbehandelt, um Cyclooxygenaseeffekte zu beseitigen. Durch Zugabe von Phenylephrin (10 µM) zu den Organkammern wurden Kontraktionen induziert. Nachdem die Phenylephrin-induzierte Kontraktion einen dauerhaften Zustand erreicht hatte, wurde das tricyclische Pteridinon (Pt) (Fig. 1a und 1b) oder der Stickstoffoxid-Donor S-Nitroso-N-acetylpenicillamin (SNAP) zugegeben (Fig. 2).

In data set [2] the test system is PDE I. The experiment in a line: PDE subtype profile: inhibition of isolated PDE isozyme. Type of data set: biochemical. The note with it: PDE I aus Rinder-Aorta; 0,2 µM [3H] cyclisches GMP. On the procedure:
(§1) Die verschiedenen Formen cyclischer Nukleotidphosphodiesterasen (PDE) wurden mit üblichen Methoden isoliert. Die PDE-lsozyme wurden aus den folgenden Quellen isoliert: PDE I und PDE V aus Rinder-Aorta, PDE II aus dem linken Ventrikel von Ratten, PDE IV aus Rattenniere und PDE III aus menschlichen Plättchen.
(§2) Die PDE-Aktivität wurde in einem Reaktionsmedium gemessen, das 40 mM Tris-HCI (pH 8,0), 5 mM MgCl2, 1 mM Dithiothreitol und 0,2 µM [^3H] cyclisches GMP enthielt. Das tricyclische Pteridinon wurde in DMSO (2,5%) gelöst. Bei dieser DMSO-Konzentration wurde die Enzymaktivität zu etwa 10% inhibiert. Die IC50-Werte für das tricyclische Pteridinon wurden anhand von Dosis-Wirkungs-Kurven bestimmt, bei denen die Konzentration im Bereich von 1 nM bis 10 µM (ganze log-Inkremente) lag. Für jedes untersuchte PDE-Isozym wurden mindestens zwei IC50-Bestimmungen an verschiedenen Tagen durchgeführt.

For data set [3], the target named is T1, PDE III (Homo sapiens, UniProt Q14432).
T1 construct: Die PDE-lsozyme wurden aus den folgenden Quellen isoliert; from tissue; host or cells: human platelets
T1 sequence (Q14432 whole entry): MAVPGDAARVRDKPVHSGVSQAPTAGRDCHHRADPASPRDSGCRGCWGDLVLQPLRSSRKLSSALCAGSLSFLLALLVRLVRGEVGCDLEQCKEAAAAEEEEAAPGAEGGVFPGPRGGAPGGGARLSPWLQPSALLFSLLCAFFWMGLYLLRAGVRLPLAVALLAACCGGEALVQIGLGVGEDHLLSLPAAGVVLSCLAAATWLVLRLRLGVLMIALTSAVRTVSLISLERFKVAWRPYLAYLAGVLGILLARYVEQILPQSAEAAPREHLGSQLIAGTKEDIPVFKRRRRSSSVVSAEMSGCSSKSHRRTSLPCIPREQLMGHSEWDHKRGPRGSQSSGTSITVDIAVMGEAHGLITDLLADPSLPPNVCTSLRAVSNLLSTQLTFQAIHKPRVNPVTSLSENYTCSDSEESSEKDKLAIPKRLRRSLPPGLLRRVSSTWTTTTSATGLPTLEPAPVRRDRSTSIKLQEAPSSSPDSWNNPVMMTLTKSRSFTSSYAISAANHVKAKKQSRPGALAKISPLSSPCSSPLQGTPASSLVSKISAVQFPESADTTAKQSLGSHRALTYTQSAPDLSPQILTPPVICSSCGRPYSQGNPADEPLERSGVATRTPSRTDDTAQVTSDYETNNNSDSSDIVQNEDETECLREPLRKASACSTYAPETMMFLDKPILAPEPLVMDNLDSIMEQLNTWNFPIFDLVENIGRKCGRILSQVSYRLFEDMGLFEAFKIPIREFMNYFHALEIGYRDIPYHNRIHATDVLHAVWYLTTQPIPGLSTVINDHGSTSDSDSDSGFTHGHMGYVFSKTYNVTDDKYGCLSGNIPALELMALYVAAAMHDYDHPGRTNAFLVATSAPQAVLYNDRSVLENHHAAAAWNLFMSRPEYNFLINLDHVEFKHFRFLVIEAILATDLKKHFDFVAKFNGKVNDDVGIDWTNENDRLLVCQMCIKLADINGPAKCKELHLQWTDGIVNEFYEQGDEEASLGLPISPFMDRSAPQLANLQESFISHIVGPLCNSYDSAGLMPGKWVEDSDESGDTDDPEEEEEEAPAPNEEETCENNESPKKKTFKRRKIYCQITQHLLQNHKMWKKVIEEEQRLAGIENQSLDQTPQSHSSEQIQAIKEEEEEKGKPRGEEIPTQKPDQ
Described as above. Type of data set: biochemical. The conditions noted are these: PDE III aus menschlichen Plättchen. As to the method:
as §1, §2

Data set [4] concerns the target T2, PDE V (Bos taurus, UniProt Q28156).
T2 construct: Die PDE-lsozyme wurden aus den folgenden Quellen isoliert; from tissue; host or cells: bovine aorta
The data set is described as above. Type of data set: biochemical. The note with it: PDE V aus Rinder-Aorta. On the procedure:
as §1, §2

The test system of data set [5] is PDE VI. The description is as above. Type of data set: biochemical. The note with it: source of PDE VI not given. As to the method:
as §2

Data set [6] relates to Macaca fascicularis-Affen. The experiment in a line: Monkey model of male erectile dysfunction (intracavernous pressure, blood pressure). Format: in vivo.
Data set [7] deals with Katzen. The experiment in a line: Cat model of male erectile dysfunction (intracavernous pressure, systemic blood pressure). Format: in vivo. As to the method: Geschlechtsreife männliche Katzen (Körpergewicht 2,9-4,6 kg) wurden mit α-Chloralose (60 mg/kg i.m.) narkotisiert. Dann wurden Hartmansche Lösung und eine Dextroselösung bei […] über die antekubitale Vene infundiert. Die Beatmung wurde über eine an einen Tierventilator (Harvard Apparatus Ltd., Boston MA) angeschlossene Tracheotomie sichergestellt. Pancuroniumbromid (0,3 ml/kg) wurde als Muskelrelaxans infundiert. Nach Bedarf wurden zusätzliche Dosen von α-Chlorase und Pancuroniumbromid gegeben, um ein gleichbleibendes Anästhesie-Niveau beizubehalten.
In der inneren Carotid-Arterie wurde ein zentraler Katheter gelegt, um eine Arterienblut-Gasanalyse (ABGA) durchzuführen und den systemischen Blutdruck in der Arterie aufzuzeichnen. Eine 23 G-Nadel wurde in das Corpus cavernosum eingeführt, um die Veränderungen des intracavernösen Drucks (ICP) zu messen. Sowohl der systemische, arterielle Blutdruck als auch der ICP wurden mittels eines Druckwandlers (Gilson P23XL-1, physiologischer Druckwandler, Ohmeda, Kanada), der an einen Polygraphen (Grass Model 7D, Quincy, MA, USA) angeschlossen war, gemessen. Zur lokalen Injektion von Versuchsverbindungen wurde ein Zweig der inneren Pudendalarterie auf einer Seite mit einem länglichen Polyethylenschlauch (PE-10-Schlauch, Original-Innendurchmesser 0,25 mm, Außendurchmesser 0,76 mm) retrograd mikrokanüliert. Dann wurden zur Verabreichung der Wirkstoffe (jeweils 0,1 ml) in den Penis die übrigen Zweige, bis auf die Penisarterie, ligiert. Mit geeigneten Ventilator-Einstellungen (z.B. Tidalvolumen 10 ml/kg; Atmungsrate 15-20/Min.) wurde eine Normoxie (pH > 7,25, PO2 > 60 mmHg, PCO2 < 40 mmHg) erzeugt und mit ABGA und einem mit der ausgeatmeten Luft verbundenen Capnometer (Modell 2200, Traverse Medical Monitors, USA) überprüft. Um die Volumeneffekte von Lösungsmitteln zu beurteilen, wurden destilliertes Wasser und normale Kochsalzlösung intraarteriell infundiert. Intraarterielles Wasser und Kochsalzlösung hatten selbst bei einem Bolus keinen Effekt auf den intracavernösen Druck (ICP).
Die Lösungen des tricyclischen Pteridinon wurden unter Verwendung einer 1%igen 6N HCI- und einer 5%igen DMSO-Lösung hergestellt. Papaverin (50 mg) + Phentolamin (5 mg) (Bimix) wurde in 5 ml mit 5% DMSO/Rest Kochsalzlösung hergestellt. Jedes Arzneimittel wurde als Bolus von 0,1 ml und 0,05 ml heparinisierter Kochsalzlösung zum Spülen infundiert.
Der Grund-ICP, ΔICP (d.h. die reine Veränderung des Grund-ICP) und Veränderungen des systemischen Blutdrucks wurden nach der intraarteriellen Injektion aufgezeichnet. Alle Daten wurden mittels eines Student's t-Test beurteilt, wobei p<0,05 als signifikant galt. Die Daten priapischer Episoden wurden bei den Berechnungen ausgeschlossen.

Data set [8] can be described thus: Pharmacokinetic experiments, plasma levels after oral administration. Type of data set: in vivo. The conditions noted are these: species not given.
The test system of data set [9] is PDE IV. The experiment in a line: PDE subtype profile: inhibition of isolated PDE isozyme. Type of data set: biochemical, Ratten. The conditions noted are these: PDE IV aus Rattenniere. On the procedure: as §1, §2
The test system of data set [10] is Macaca fascicularis-Affen. The data set is described as follows: Monkey model of male erectile dysfunction (intracavernous pressure, blood pressure). Type of data set: in vivo. The conditions noted are these: for Maximaler Druck / Mittlerer Druckanstieg: intracavernous bolus 0,5 ml, given after nitroprusside response returned to baseline. As to the method: Das tricyclische Pteridinon wurde Macaca fascicularis-Affen als intracavernöse Bolusinjektion (0,5 ml, mit 0,5 ml Kochsalzlösung-Flush) verabreicht. Die Auswirkungen auf den intracavernösen Druck wurden mitlaufend gemessen und mit denen des Stickstoffoxid-Donors Nitroprussid (SNP oder NP) verglichen. Stickstoffoxid induziert eine Erektion, indem es als Guanylatcyclase-Agonist wirkt.
Die abschließende Reihe der in vivo-Versuche an Affen untersuchte die Effekte des tricyclischen Pteridinon bei intravenöser Verabreichung (1 und 3 mg/kg) 15 Minuten vor der intracavernösen Injektion von Nitroprussid (10^-5 M). Diese Vorgehensweise wurde gewählt, um zu bestimmen, ob die "systemische Verabreichung" von tricyclischem Pteridinon die Nitroprussid-induzierte, erektile Reaktion wirksam verstärkt.

[11] abbreviates: i.v. bolus injection 0,5 mg/Tier.

A value given as a limit tells only on which side of the number the result lay.

As to `CC(=O)N[C@H](C(=O)O)C(C)(C)SN=O` [SNAP, S-Nitroso-N-acetylpenicillamin, reference compound], the “Relaxation der kavernösen, glatten Muskulatur” value in data set [1] (Fig. 2) was “unmittelbare Relaxation”.
In general, IC50 refers to the point on the concentration scale where inhibition reaches its midpoint. On to `CCc1nc(C)cn1-c1nc(C(C)C)c2[nH]c(=O)c3c(C)nc(CC)n3c2n1` [tricyclisches Pteridinon, 9-Ethyl-2-(2-ethyl-4-methyl-1H-imidazol-1-yl)-7-methyl-4-(2-propyl)imidazo[5,1-h]pteridin-6(5H)on], for which the 50% inhibitory concentration (IC50) in data set [2] was 5.8 nM; in [3], above 10000 nM; in data set [4], 35 nM; in [5] it was 56 nM; in data set [1] (Phenylephrin 10 µM, Indomethacin 10^-5 M, Fig. 1 (Kaninchen, and tissue of impotent patients), read-out: IC50-Wert für die Inhibierung der Phenylephrin-induzierten Kontraktion) it was around 1000 nM; in data set [9], 74 nM. Moreover, the “Relaxation der kavernösen, glatten Muskulatur” value in data set [1] (Fig. 2) was “unmittelbare Relaxation”. Besides, the “Stärke im Vergleich zu SNAP” value in data set [1] (in vitro model, Fig. 2) was “stärker”. Besides, the figures for the “Dauer des Nitroprussid-induzierten Anstiegs des cavernösen Drucks” value in data set [6] (1 mg/kg given simultaneously with nitroprusside) and in [6] (3 mg/kg given simultaneously with nitroprusside) were “verdoppelte” and “nahezu verdreifachten”, respectively. Besides, in data set [7] (0,1 mg/Tier), the “Erektionen steif (visuelle Bestimmung)” value is “nicht als steif”. Also, the Erektionen steif entry in [7] (higher doses (Fig. 3: 0,3 and 0,5 mg/Tier)) is “steifen Erektion”. Further, in [7] (setting [11]), the “Dauer der vorübergehenden Spitzenabfälle des systemischen Arterienblutdrucks” value was at most 5 Minuten. The “Spitzenabfälle des systemischen Arterienblutdrucks” value in data set [7] (setting [11]) is listed as 15,8 mmHg. In addition, the “Anstieg des ICP” value in data set [7] (local intra-arterial administration, 0,1 mg/Tier, p<0,01) is on record as 5,5 mmHg. In addition, the “Dosis, die den ICP erhöht” value in [7] (local intra-arterial injection, 0,1 ml bolus, initial dose-finding study) is recorded as ≥ 0,0038 mg. In addition, the “ICP, Dosisabhängigkeit” value in data set [7] (local intra-arterial injection, Fig. 3) is on record as “erhöhte in dosisabhängiger Weise signifikant den ICP”. The “Zeit bis zu signifikanten Plasmamengen nach oraler Verabreichung” value in [8] is at most 30 Minuten. Besides, the “Anstieg des cavernösen Drucks” value in data set [10] (Affen, given before administration of nitroprusside) is “keinen anhaltenden Anstieg”. The “intracavernöser Druck nach systemischer Verabreichung” value in [10] (Affen, i.v. 1 and 3 mg/kg, Fig. 5) was “wirksam erhöht”. Moreover, the Blutdrucksenkung in [10] (Affen, i.v. administration, 1 and 3 mg/kg) is 20-40 mmHg. Besides, the “Maximaler Druck” value in data set [10] (Affen, 10^-4 Molar) is 165 (1) cm H2O; in [10] (Affen, 10^-5 Molar), 103 (3) cm H2O; in [10] (Affen, 10^-6 Molar) it was 95 (2) cm H2O. The “Mittlerer Druckanstieg” value in data set [10] (Affen, 10^-4 Molar) is 62 (1) Δ cm H2O; in [10] (Affen, 10^-5 Molar), 51 (3) Δ cm H2O; in data set [10] (Affen, 10^-6 Molar), 41 (2) Δ cm H2O. Further, in [10] (one monkey, pretreatment 3 mg/kg followed by nitroprusside 10^-5 M i.c.), the “Adverse finding after pretreatment” value is recorded as “Priapismus”.

(Values after patent publication EP1312365A1, “Pteridinones for the treatment of erectile dysfunctions” (Jenapharm GmbH & Co. KG, priority 2001, dated 2003).)
